Measurements taken from ChEMBL document CHEMBL1201862, “PubChem BioAssay data set” (2004).
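Where inhibition never reached the appropriate level, the endpoint shown equals the highest concentration tested. Otherwise, values were interpolated linearly from a five-concentration, 48-hour dose response in 96-well plates. At the GI50, growth is halved.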 Calls of active or inactive are those of the source. No stated cut-off is given here; in the data, active = GI50 up to about 1.1 µM and inactive = higher.

Experiments:
Test in all cases: NCI-60 cell line screen, 48 h
[1] = tested on: SW-620
[2] = tested on: HT-29
[3] = tested on: SK-MEL-28
[4] = tested on: SNB-78
[5] = tested on: NCI-H23
[6] = tested on: SN12C
[7] = tested on: LXFL 529
[8] = tested on: 786-0
[9] = tested on: HL-60
[10] = tested on: SK-MEL-5
[11] = tested on: SK-MEL-2
[12] = tested on: UO-31
[13] = tested on: HOP-92
[14] = tested on: CAKI-1
[15] = tested on: HOP-18
[16] = tested on: OVCAR-3
[17] = tested on: ACHN

Row | SMILES | GI50 [1] | GI50 [2] | GI50 [3] | GI50 [4] | GI50 [5] | GI50 [6] | GI50 [7] | GI50 [8] | GI50 [9] | GI50 [10] | GI50 [11] | GI50 [12] | GI50 [13] | GI50 [14] | GI50 [15] | GI50 [16] | GI50 [17]
1 | C/C(=N\O)C(CN(C)C)C(c1ccccc1)c1c(O)c2ccccc2oc1=O (centres undefined) | > 100 µM (inactive) | > 100 µM (inactive) | > 100 µM (inactive) | > 100 µM (inactive) | > 100 µM (inactive) | > 100 µM (inactive) | > 100 µM (inactive) | > 100 µM (inactive) | > 100 µM (inactive) | > 100 µM (inactive) | > 100 µM (inactive) | > 100 µM (inactive) | 34.9 µM (inactive) | > 100 µM (inactive) |  |  | 
2 | CC(C)NC(=O)OCc1c2c(n(C)c1COC(=O)NC(C)C)-c1ccccc1CC2 | 9.2 µM (inactive) | 15.2 µM (inactive) | 13 µM (inactive) | 11.4 µM (inactive) | 6.71 µM (inactive) | 13 µM (inactive) |  |  | 2.55 µM (inactive) | 14.4 µM (inactive) | 14.5 µM (inactive) | 14.8 µM (inactive) | 6.73 µM (inactive) | 9.14 µM (inactive) | 2.28 µM (inactive) | 14.2 µM (inactive) | 
3 | C/C(CC(=O)Nc1cccc([N+](=O)[O-])c1)=N\NC(=O)CC#N | > 100 µM (inactive) | > 100 µM (inactive) | > 100 µM (inactive) | > 100 µM (inactive) | > 100 µM (inactive) |  | > 100 µM (inactive) | > 100 µM (inactive) | > 100 µM (inactive) | > 100 µM (inactive) | > 100 µM (inactive) | > 100 µM (inactive) | > 100 µM (inactive) |  |  | > 100 µM (inactive) | 
4 | COC(=O)C1(c2ccc(OC)cc2)NC(c2ccccc2)C2C(=O)N(c3ccc(OC)cc3)C(=O)C21 (centres undefined) | > 100 µM (inactive) | > 100 µM (inactive) | > 100 µM (inactive) | > 100 µM (inactive) | > 100 µM (inactive) | > 100 µM (inactive) | > 100 µM (inactive) | > 100 µM (inactive) | > 100 µM (inactive) | > 100 µM (inactive) | > 100 µM (inactive) | > 100 µM (inactive) |  | > 100 µM (inactive) | < 0.01 µM (active) |  | > 100 µM (inactive)
5 | Cc1cc(C)nc(NS(=O)(=O)c2ccc(NC(=O)COC(=O)c3cccc4c(=O)c5ccccc5[nH]c34)cc2)n1 | 31.8 µM (inactive) | 33 µM (inactive) | 31.7 µM (inactive) | 82.2 µM (inactive) | 29.7 µM (inactive) | 40.4 µM (inactive) | 39.8 µM (inactive) | 19.1 µM (inactive) | 26.9 µM (inactive) | 40.6 µM (inactive) |  | 61.9 µM (inactive) | 31.1 µM (inactive) | > 100 µM (inactive) |  | 23.6 µM (inactive) | 47.5 µM (inactive)
6 | O=C1CCCCCCCCCCC1CN1CCCCC1 (centres undefined) | > 100 µM (inactive) | 35.6 µM (inactive) | 41.6 µM (inactive) | > 100 µM (inactive) | 26.9 µM (inactive) | > 100 µM (inactive) | > 100 µM (inactive) | > 100 µM (inactive) | 87.1 µM (inactive) | 15 µM (inactive) | > 100 µM (inactive) | 39 µM (inactive) |  |  |  | > 100 µM (inactive) | > 100 µM (inactive)
7 | CCOC(=O)NC(=O)c1cn(CCN(CCO)C(=O)NCCCCCCNC(=O)N(CCO)CCn2cc(C(=O)NC(=O)OCC)c(=O)[nH]c2=O)c(=O)[nH]c1=O | > 100 µM (inactive) | > 61 µM (inactive) | > 100 µM (inactive) | > 100 µM (inactive) | > 100 µM (inactive) | > 100 µM (inactive) |  |  | > 100 µM (inactive) | > 100 µM (inactive) | > 100 µM (inactive) | > 100 µM (inactive) | > 100 µM (inactive) | > 100 µM (inactive) | > 100 µM (inactive) | > 100 µM (inactive) | 
